Assay results from the NIST ThermoML archive (doi:10.1016/j.fluid.2004.12.004).
± gives the expanded uncertainty stated by the source.

Conditions: 298.15 K; 101.33 kPa; Liquid; Vibrating tube method

Compound | mass density [kg/m3]
COC(=O)c1ccccc1C(=O)OC [dimethyl 1,2-benzenedicarboxylate] | 1186.9 ± 0.2
CCCCO [butan-1-ol] | 805.8 ± 0.2
CN(C)C=O [dimethylformamide] | 943.81 ± 0.2

Other lines, results leading:

mass density [kg/m3] | Compound
1073.3 ± 0.42 | CC(=O)Oc1ccccc1 [phenyl ethanoate]
764.96 ± 0.13 | CC1CCCCC1 [methylcyclohexane]
894.4 ± 0.6 | CCOC(C)=O [ethyl acetate]
